Measurements as given in ChEMBL document CHEMBL3885881, “DrugMatrix”.

Species on record: Rattus norvegicus
Assay: DrugMatrix - Regimen: Daily Repeat
Type: toxicity, organism-based, Sprague-Dawley
Parameters: regimen Daily Repeat, gender Male, age 6-8 weeks
Conditions: in vivo, po, route oral GAVAGE; for POTASSIUM / SODIUM / TOTAL BILIRUBIN / TOTAL PROTEIN / URIC ACID / ALANINE AMINOTRANSFERASE / ALBUMIN / ALKALINE PHOSPHATASE / ASPARTATE AMINOTRANSFERASE / BLOOD UREA NITROGEN / CARBON DIOXIDE / CHLORIDE / CHOLESTEROL / CREATINE PHOSPHOKINASE / CREATININE / GLUCOSE / LACTATE DEHYDROGENASE / LIPASE / PHOSPHORUS: tissue Plasma; for ABSOLUTE EOSINOPHIL / ABSOLUTE LYMPHOCYTE / ABSOLUTE MONOCYTE / ABSOLUTE SEGMENTED NEUTROPHIL / EOSINOPHIL / ERYTHROCYTE COUNT / HEMATOCRIT / HEMOGLOBIN / LEUKOCYTE COUNT / LYMPHOCYTE / MEAN CORPUSCULAR HEMOGLOBIN / MEAN CORPUSCULAR HEMOGLOBIN CONCENTRATION / MEAN CORPUSCULAR VOLUME / MONOCYTE / NEUTROPHIL / PLATELET COUNT / ABSOLUTE BASOPHIL / BASOPHIL / NUCLEATED RED BLOOD CELLS: tissue Blood
[1] = 60 mg/kg, 120 h, dose level Low, time 5 day, vehicle 100 % WATER
[2] = 600 mg/kg, 72 h, dose level High, time 3 day, […]
[3] = 600 mg/kg, 72 h, dose level High, time 3 day, vehicle 100 % WATER
[4] = 600 mg/kg, 120 h, dose level High, time 5 day, […]
[5] = 600 mg/kg, 120 h, dose level High, time 5 day, vehicle 100 % WATER

ClC(Cl)Cl [CHLOROFORM]
POTASSIUM [1]: 6.14 MEQ/L
SODIUM [1]: 145.6 MEQ/L
TOTAL BILIRUBIN [1]: 0.1 mg/dL
TOTAL PROTEIN [1]: 6.3 G/DL
URIC ACID [1]: 1.5 mg/dL
ABSOLUTE EOSINOPHIL [2]: 29.6 CELLS/uL
ABSOLUTE LYMPHOCYTE [2]: 12329.2 CELLS/uL
ABSOLUTE MONOCYTE [2]: 476.6 CELLS/uL
ABSOLUTE SEGMENTED NEUTROPHIL [2]: 1764.6 CELLS/uL
EOSINOPHIL [2]: 0.2%
ERYTHROCYTE COUNT [2]: 7.17 x10E6/uL
HEMATOCRIT [2]: 43%
HEMOGLOBIN [2]: 15.88 G/DL
LEUKOCYTE COUNT [2]: 14.6 x10E3/uL
LYMPHOCYTE [2]: 84.4%
MEAN CORPUSCULAR HEMOGLOBIN [2]: 22.2 pg
MEAN CORPUSCULAR HEMOGLOBIN CONCENTRATION [2]: 37 G/DL
MEAN CORPUSCULAR VOLUME [2]: 60.02 fL
MONOCYTE [2]: 3.2%
NEUTROPHIL [2]: 12.2%
PLATELET COUNT [2]: 1301.6 x10E3/uL
ABSOLUTE BASOPHIL [3]: 0 CELLS/uL
ABSOLUTE EOSINOPHIL [3]: 0 CELLS/uL
ABSOLUTE LYMPHOCYTE [3]: 7700 CELLS/uL
ABSOLUTE MONOCYTE [3]: 77.67 CELLS/uL
ABSOLUTE SEGMENTED NEUTROPHIL [3]: 589 CELLS/uL
BASOPHIL [3]: 0%
EOSINOPHIL [3]: 0%
ERYTHROCYTE COUNT [3]: 6.05 x10E6/uL
HEMATOCRIT [3]: 38.4%
HEMOGLOBIN [3]: 14.97 G/DL
LEUKOCYTE COUNT [3]: 8.37 x10E3/uL
LYMPHOCYTE [3]: 88%
MEAN CORPUSCULAR HEMOGLOBIN [3]: 24.73 pg
MEAN CORPUSCULAR HEMOGLOBIN CONCENTRATION [3]: 38.97 G/DL
MEAN CORPUSCULAR VOLUME [3]: 63.43 fL
MONOCYTE [3]: 1.33%
NEUTROPHIL [3]: 10.67%
NUCLEATED RED BLOOD CELLS [3]: 0 /100WBC
PLATELET COUNT [3]: 1080.33 x10E3/uL
ALANINE AMINOTRANSFERASE [2]: 196 u/L
ALBUMIN [2]: 4.36 G/DL
ALKALINE PHOSPHATASE [2]: 902 u/L
ASPARTATE AMINOTRANSFERASE [2]: 462.4 u/L
BLOOD UREA NITROGEN [2]: 20.8 mg/dL
CARBON DIOXIDE [2]: 16.6 mmol/L
CHLORIDE [2]: 107.4 MEQ/L
CHOLESTEROL [2]: 77.6 mg/dL
CREATINE PHOSPHOKINASE [2]: 516 u/L
CREATININE [2]: 0.44 mg/dL
GLUCOSE [2]: 134.8 mg/dL
LACTATE DEHYDROGENASE [2]: 597.4 u/L
LIPASE [2]: 10.6 u/L
PHOSPHORUS [2]: 13.48 mg/dL
POTASSIUM [2]: 5.66 MEQ/L
SODIUM [2]: 144.48 MEQ/L
TOTAL BILIRUBIN [2]: 0.72 mg/dL
TOTAL PROTEIN [2]: 6.04 G/DL
URIC ACID [2]: 2.72 mg/dL
ALANINE AMINOTRANSFERASE [3]: 73.33 u/L
ALBUMIN [3]: 4.4 G/DL
ALKALINE PHOSPHATASE [3]: 416 u/L
ASPARTATE AMINOTRANSFERASE [3]: 103.67 u/L
BLOOD UREA NITROGEN [3]: 14.67 mg/dL
CARBON DIOXIDE [3]: 34.33 mmol/L
CHLORIDE [3]: 98.67 MEQ/L
CHOLESTEROL [3]: 81.67 mg/dL
CREATINE PHOSPHOKINASE [3]: 203.67 u/L
CREATININE [3]: 0.22 mg/dL
GLUCOSE [3]: 153.67 mg/dL
LACTATE DEHYDROGENASE [3]: 179 u/L
LIPASE [3]: 10.67 u/L
PHOSPHORUS [3]: 10 mg/dL
POTASSIUM [3]: 5.43 MEQ/L
SODIUM [3]: 144.7 MEQ/L
TOTAL BILIRUBIN [3]: 0.13 mg/dL
TOTAL PROTEIN [3]: 6.6 G/DL
URIC ACID [3]: 0.7 mg/dL
ABSOLUTE LYMPHOCYTE [4]: 11359.33 CELLS/uL
ABSOLUTE MONOCYTE [4]: 227.33 CELLS/uL
ABSOLUTE SEGMENTED NEUTROPHIL [4]: 6880 CELLS/uL
ERYTHROCYTE COUNT [4]: 7.17 x10E6/uL
HEMATOCRIT [4]: 42.1%
HEMOGLOBIN [4]: 15.6 G/DL
LEUKOCYTE COUNT [4]: 18.47 x10E3/uL
LYMPHOCYTE [4]: 73%
MEAN CORPUSCULAR HEMOGLOBIN [4]: 21.73 pg
MEAN CORPUSCULAR HEMOGLOBIN CONCENTRATION [4]: 37.07 G/DL
MEAN CORPUSCULAR VOLUME [4]: 58.7 fL
MONOCYTE [4]: 2%
NEUTROPHIL [4]: 25%
PLATELET COUNT [4]: 1040.67 x10E3/uL
ABSOLUTE BASOPHIL [5]: 0 CELLS/uL
ABSOLUTE EOSINOPHIL [5]: 0 CELLS/uL
ABSOLUTE LYMPHOCYTE [5]: 9175.5 CELLS/uL
ABSOLUTE MONOCYTE [5]: 105.5 CELLS/uL
ABSOLUTE SEGMENTED NEUTROPHIL [5]: 1269 CELLS/uL
BASOPHIL [5]: 0%
EOSINOPHIL [5]: 0%
ERYTHROCYTE COUNT [5]: 6.48 x10E6/uL
HEMATOCRIT [5]: 39.2%
HEMOGLOBIN [5]: 15.15 G/DL
LEUKOCYTE COUNT [5]: 10.55 x10E3/uL
LYMPHOCYTE [5]: 88%
MEAN CORPUSCULAR HEMOGLOBIN [5]: 23.4 pg
MEAN CORPUSCULAR HEMOGLOBIN CONCENTRATION [5]: 38.7 G/DL
MEAN CORPUSCULAR VOLUME [5]: 60.5 fL
MONOCYTE [5]: 1%
NEUTROPHIL [5]: 11%
NUCLEATED RED BLOOD CELLS [5]: 0 /100WBC
PLATELET COUNT [5]: 959 x10E3/uL
ALANINE AMINOTRANSFERASE [4]: 212 u/L
ALBUMIN [4]: 4.1 G/DL
ALKALINE PHOSPHATASE [4]: 626 u/L
ASPARTATE AMINOTRANSFERASE [4]: 299.67 u/L
BLOOD UREA NITROGEN [4]: 49.67 mg/dL
CARBON DIOXIDE [4]: 19.67 mmol/L
CHLORIDE [4]: 110.67 MEQ/L
CHOLESTEROL [4]: 110.33 mg/dL
CREATINE PHOSPHOKINASE [4]: 744 u/L
CREATININE [4]: 0.83 mg/dL
GLUCOSE [4]: 119.33 mg/dL
LACTATE DEHYDROGENASE [4]: 376 u/L
PHOSPHORUS [4]: 13.27 mg/dL
POTASSIUM [4]: 9.12 MEQ/L
SODIUM [4]: 144.83 MEQ/L
TOTAL BILIRUBIN [4]: 0.63 mg/dL
TOTAL PROTEIN [4]: 5.77 G/DL
URIC ACID [4]: 1.3 mg/dL
ALANINE AMINOTRANSFERASE [5]: 46.5 u/L
ALBUMIN [5]: 4.05 G/DL
ALKALINE PHOSPHATASE [5]: 305.5 u/L
ASPARTATE AMINOTRANSFERASE [5]: 71 u/L
BLOOD UREA NITROGEN [5]: 15 mg/dL
CARBON DIOXIDE [5]: 29 mmol/L
CHLORIDE [5]: 102.5 MEQ/L
CHOLESTEROL [5]: 69 mg/dL
CREATINE PHOSPHOKINASE [5]: 475.5 u/L
CREATININE [5]: 0.21 mg/dL
GLUCOSE [5]: 150.5 mg/dL
LACTATE DEHYDROGENASE [5]: 93 u/L
LIPASE [5]: 11 u/L
PHOSPHORUS [5]: 11.45 mg/dL
POTASSIUM [5]: 5.24 MEQ/L
SODIUM [5]: 146.9 MEQ/L
TOTAL BILIRUBIN [5]: 0.1 mg/dL
TOTAL PROTEIN [5]: 6.05 G/DL
URIC ACID [5]: 0.95 mg/dL
